In this assay the test system is MV4:11 human cancer cell lines. The experiment in a line: Cellular viability / anti-proliferative activity (CellTiter-Glo). It counts as cell-based. The conditions noted are these: MV4-11, 120 h, MV-4-11 cells, 5 day protocol, mean of minimum two replicates, read-out: GI50 on cellular proliferation of MV4:11 human cancer cell lines. The method, then:
Cellular Viability of Human Tumor Cell Lines
Anti-Proliferative Activity Using MLL-Harboring Cell Lines.
MV-4-11 and K562 cells are grown in IMDM media supplemented with 10% FBS and […], Molm-13 cells are cultured in RPMI-1640 media supplemented with 10% FBS and 1% o penicillin/streptomycin. Viability assays are performed by dispensing 200 cells at 7200 cells/mL into each well of an opaque 384-well plate and adding compounds at the indicated concentrations in a final volume of 32 μL and a final concentration of DMSO of 0.3% for all samples. A certain range of compound concentrations is made through a series of 2-fold dilutions starting 30 μM at the highest, total 22 dilutions. After a set incubation period, 5 day protocol, the viability of cells in each well is assessed using the CellTiter-Glo assay (Promega), read on a 96 Microplane Luminometer (Cytation 3, BioTek). Serial dilutions of each cell type are performed in all assays to generate standard curves and the final densities of cells are determined within the dynamic range of the instrument. GI50 values are calculated based on XLfit software (IDBS, Guildford, UK) with Sigmoidal Dose-Response Model. Each compound is tested in minimum of two replicates. Data are expressed as mean.
(In general: Cellular ATP, detected with luciferase, serves as a proxy for viable cell number.)

A value given as a limit tells only on which side of the number the result lay.

As for `Cc1cc(C)nc(CN2CCOc3c(cc(Cn4ccnc4C)cc3-c3cc(C)ccc3C)C2=O)c1` [Example 49, 9-(2,5-Dimethylphenyl)-4-((4,6-dimethylpyridin-2-yl)methyl)-7-((2-methyl-1H-imidazol-1-yl)methyl)-3,4-dihydrobenzo[f][1,4]oxazepin-5(2H)-one], the GI50 came out at 45 nM.
The result for `COc1ccc2nccc(N3CCOc4c(cc(Cn5ccnc5C)cc4-c4cn(C)nc4C(F)(F)F)C3=O)c2c1` [Example 58, 4-(6-Methoxyquinolin-4-yl)-7-((2-methyl-1H-imidazol-1-yl)methyl)-9-(1-methyl-3-(trifluoromethyl)-1H-pyrazol-4-yl)-3,4-dihydrobenzo[f][1,4]oxazepin-5(2H)-one] reads 77 nM; that for `COc1cc(CN2CC(=O)Nc3c(cc(Cn4ccnc4C)cc3-c3ccc(F)cc3C)C2=O)cc(OC)c1` [Example 28, 4-(3,5-Dimethoxybenzyl)-9-(4-fluoro-2-methylphenyl)-7-((2-methyl-1H-imidazol-1-yl)methyl)-3,4-dihydro-1H-benzo[e][1,4]diazepine-2,5-dione], 232 nM.
The same measure for `COc1cc(CN2C[C@@H](C)Oc3c(cc(Cn4ccnc4C)cc3-c3ccc(F)cc3C)C2=O)cc(OC)c1` [Example 34, (R)-4-(3,5-Dimethoxybenzyl)-9-(4-fluoro-2-methylphenyl)-2-methyl-7-((2-methyl-1H-imidazol-1-yl)methyl)-3,4-dihydrobenzo[f][1,4]oxazepin-5(2H)-one]: 1470 nM; for `Cc1cc(C)nc(CN2CCOc3c(cc(Cn4cnn(C)c4=N)cc3-c3cn(C)nc3C(F)(F)F)C2=O)c1` [Example 31, 4-((4,6-dimethylpyridin-2-yl)methyl)-7-((5-imino-1-methyl-1,5-dihydro-4H-1,2,4-triazol-4-yl)methyl)-9-(1-methyl-3-(trifluoromethyl)-1H-pyrazol-4-yl)-3,4-dihydrobenzo[f][1,4]oxazepin-5(2H)-one]: 231 nM; for `COc1cc(CN2CCOc3c(cc(Cn4ccoc4=N)cc3-c3ccc(F)cc3C)C2=O)cc(OC)c1` [Example 9, 4-(3,5-Dimethoxybenzyl)-9-(4-fluoro-2-methylphenyl)-7-((2-iminooxazol-3(2H)-yl)methyl)-3,4-dihydrobenzo[f][1,4]oxazepin-5(2H)-one]: 259 nM.
The same measure for `Cc1ccnc(CN2C[C@H](C)Oc3c(cc(Cn4ccnc4C)cc3-c3cn(C)nc3C(F)(F)F)C2=O)c1` [Example 39, (S)-2-Methyl-7-((2-methyl-1H-imidazol-1-yl)methyl)-9-(1-methyl-3-(trifluoromethyl)-1H-pyrazol-4-yl)-4-((4-methylpyridin-2-yl)methyl)-3,4-dihydrobenzo[f][1,4]oxazepin-5(2H)-one]: 730 nM; for `COc1ccnc([C@H](C)N2CCOc3c(cc(Cn4cnn(C)c4=N)cc3-c3cn(C)nc3C(F)(F)F)C2=O)c1` [Example 53, (S)-7-((5-Imino-1-methyl-1,5-dihydro-4H-1,2,4-triazol-4-yl)methyl)-4-(1-(4-methoxypyridin-2-yl)ethyl)-9-(1-methyl-3-(trifluoromethyl)-1H-pyrazol-4-yl)-3,4-dihydrobenzo[f][1,4]oxazepin-5(2H)-one]: 67 nM; for `COc1cnc2cccc(N3CCOc4c(cc(Cn5ccnc5)cc4-c4cn(C)nc4C(F)(F)F)C3=O)c2c1` [Example 70, 7-((1H-imidazol-1-yl)methyl)-4-(3-methoxyquinolin-5-yl)-9-(1-methyl-3-(trifluoromethyl)-1H-pyrazol-4-yl)-3,4-dihydrobenzo[f][1,4]oxazepin-5(2H)-one]: 306 nM.
Take `CCc1cc(OC)c2nccc(N3CCOc4c(cc(Cn5ccnc5)cc4-c4cn(C)nc4C(F)(F)F)C3=O)c2c1` [Example 67, 7-((1H-imidazol-1-yl)methyl)-4-(6-ethyl-8-methoxyquinolin-4-yl)-9-(1-methyl-3-(trifluoromethyl)-1H-pyrazol-4-yl)-3,4-dihydrobenzo[f][1,4]oxazepin-5(2H)-one]: the GI50 came out at 321 nM.
The result for `COc1cc(Cn2c(C)nc3c(-c4ccc(F)cc4C)cc(CNC4=NCCN4)cc3c2=O)cc(OC)c1` [Example 21, 6-(((4,5-Dihydro-1H-imidazol-2-yl)amino)methyl)-3-(3,5-dimethoxybenzyl)-8-(4-fluoro-2-methylphenyl)-2-methylquinazolin-4(3H)-one] reads 194 nM; that for `CCc1nccn1Cc1cc2c(c(-c3cn(C)nc3C(F)(F)F)c1)OCCN(Cc1cc(C)ccn1)C2=O` [Example 37, 7-((2-Ethyl-1H-imidazol-1-yl)methyl)-9-(1-methyl-3-(trifluoromethyl)-1H-pyrazol-4-yl)-4-((4-methylpyridin-2-yl)methyl)-3,4-dihydrobenzo[f][1,4]oxazepin-5(2H)-one], 1080 nM; that for `COc1cc(CN2C[C@H](C)Oc3c(cc(Cn4ccn(C)c4=N)cc3-c3ccc(F)cc3C)C2=O)cc(OC)c1` [Example 35, (S)-4-(3,5-Dimethoxybenzyl)-9-(4-fluoro-2-methylphenyl)-7-((2-imino-3-methyl-2,3-dihydro-1H-imidazol-1-yl)methyl)-2-methyl-3,4-dihydrobenzo[f][1,4]oxazepin-5(2H)-one], 306 nM.
The same measure for `Cc1cc(C)nc(CN2CCOc3c(cc(Cn4ccnc4C)cc3-c3scnc3C)C2=O)c1` [Example 46, 4-((4,6-Dimethylpyridin-2-yl)methyl)-7-((2-methyl-1H-imidazol-1-yl)methyl)-9-(4-methylthiazol-5-yl)-3,4-dihydrobenzo[f][1,4]oxazepin-5(2H)-one]: 703 nM; for `Cc1cc(C)nc(CN2CCOc3c(cc(Cn4ccn(C)c4=N)cc3-c3ccc(F)cc3C)C2=O)c1` [Example 12, 4-((4,6-Dimethylpyridin-2-yl)methyl)-9-(4-fluoro-2-methylphenyl)-7-((2-imino-3-methyl-2,3-dihydro-1H-imidazol-1-yl)methyl)-3,4-dihydrobenzo[f][1,4]oxazepin-5(2H)-one]: 3.5 nM; for `COc1cc(Cn2cnc3c(-c4ccc(F)cc4C)cc(Cn4ccc5cccnc54)cc3c2=O)cc(OC)c1` [Example 5, 6-((1H-Pyrrolo[2,3-b]pyridin-1-yl)methyl)-3-(3,5-dimethoxybenzyl)-8-(4-fluoro-2-methylphenyl)quinazolin-4(3H)-one]: over 940 nM.
The same measure for `CCn1cc(-c2cc(Cn3ccnc3C)cc3c2OCCN([C@H](c2cc(OC)ccn2)C2CC2)C3=O)c(C(F)(F)F)n1` [Example 60, (S)-4-(Cyclopropyl(4-methoxypyridin-2-yl)methyl)-9-(1-ethyl-3-(trifluoromethyl)-1H-pyrazol-4-yl)-7-((2-methyl-1H-imidazol-1-yl)methyl)-3,4-dihydrobenzo[f][1,4]oxazepin-5(2H)-one]: 111 nM; for `COc1cc(Cn2cnc3c(-c4ccc(F)cc4C)cc(Cn4cnn(C)c4=N)cc3c2=O)cc(OC)c1` [Example 18, 3-(3,5-Dimethoxybenzyl)-8-(4-fluoro-2-methylphenyl)-6-((5-imino-1-methyl-1,5-dihydro-4H-1,2,4-triazol-4-yl)methyl)quinazolin-4(3H)-one]: 672 nM.
`COc1cc(CN2CC(=O)Nc3c(cc(Cn4ccoc4=N)cc3-c3ccc(F)cc3C)C2=O)cc(OC)c1` [Example 30, 4-(3,5-Dimethoxybenzyl)-9-(4-fluoro-2-methylphenyl)-7-((2-iminooxazol-3(2H)-yl)methyl)-3,4-dihydro-1H-benzo[e][1,4]diazepine-2,5-dione]: the GI50 turned out to be 190 nM.
The result for `Cc1cc(C)nc(CN2CCOc3c(cc(Cn4ccnc4C)cc3-c3cc(C)c(F)cc3C)C2=O)c1` [Example 51, 4-((4,6-Dimethylpyridin-2-yl)methyl)-9-(4-fluoro-2,5-dimethylphenyl)-7-((2-methyl-1H-imidazol-1-yl)methyl)-3,4-dihydrobenzo[f][1,4]oxazepin-5(2H)-one] reads 79 nM.
In the case of `COc1cc(CN2CCOc3c(cc(Cn4ccn(C)c4=N)cc3-c3ccc(F)cc3C)C2=O)cc(OC)c1` [Example 3, 4-(3,5-Dimethoxybenzyl)-9-(4-fluoro-2-methylphenyl)-7-((2-imino-3-methyl-2,3-dihydro-1H-imidazol-1-yl)methyl)-3,4-dihydrobenzo[f][1,4]oxazepin-5(2H)-one], the GI50 worked out at 19 nM.
The result for `COc1cc(OC)c2nc(C)cc(N3CCOc4c(cc(Cn5ccnc5)cc4-c4cn(C)nc4C(F)(F)F)C3=O)c2c1` [Example 69, 7-((1H-imidazol-1-yl)methyl)-4-(6,8-dimethoxy-2-methylquinolin-4-yl)-9-(1-methyl-3-(trifluoromethyl)-1H-pyrazol-4-yl)-3,4-dihydrobenzo[f][1,4]oxazepin-5(2H)-one] reads 39 nM; that for `COc1ccnc([C@H](C)N2CCOc3c(cc(Cn4ccnc4C)cc3-c3ccc(F)cc3C)C2=O)c1` [Example 50, (S)-9-(4-Fluoro-2-methylphenyl)-4-(1-(4-methoxypyridin-2-yl)ethyl)-7-((2-methyl-1H-imidazol-1-yl)methyl)-3,4-dihydrobenzo[f][1,4]oxazepin-5(2H)-one], 50 nM; that for `COc1cc(CN2C[C@H](C)Oc3c(cc(Cn4ccnc4C)cc3-c3ccc(F)cc3C)C2=O)cc(OC)c1` [Example 36, (S)-4-(3,5-Dimethoxybenzyl)-9-(4-fluoro-2-methylphenyl)-2-methyl-7-((2-methyl-1H-imidazol-1-yl)methyl)-3,4-dihydrobenzo[f][1,4]oxazepin-5(2H)-one], 2430 nM.
